Test results from patent US12522594B2, “2-heteroaryl-3-oxo-2,3-dihydropyridazine-4-carboxamides for the treatment of cancer” (Deutsches Krebsforschungszentrum, priority 2017, dated 2026).

Assays:
[1] = target: T1, AHR (Homo sapiens, UniProt P35869); assay: In vitro assay 1: antagonism in human cell line (transactivation assay, U87 cells prestimulated with kynurenic acid, DRE firefly luciferase reporter); assay type: cell-based; set-up: host or cells: U87 glioblastoma cells, stably transfected with DRE firefly luciferase and renilla reporter constructs; conditions: 150 uM kynurenic acid, 20 hours, read-out: Assay 1: AHR-luc Hum Antagonism IC50
T1 sequence (P35869 11-848): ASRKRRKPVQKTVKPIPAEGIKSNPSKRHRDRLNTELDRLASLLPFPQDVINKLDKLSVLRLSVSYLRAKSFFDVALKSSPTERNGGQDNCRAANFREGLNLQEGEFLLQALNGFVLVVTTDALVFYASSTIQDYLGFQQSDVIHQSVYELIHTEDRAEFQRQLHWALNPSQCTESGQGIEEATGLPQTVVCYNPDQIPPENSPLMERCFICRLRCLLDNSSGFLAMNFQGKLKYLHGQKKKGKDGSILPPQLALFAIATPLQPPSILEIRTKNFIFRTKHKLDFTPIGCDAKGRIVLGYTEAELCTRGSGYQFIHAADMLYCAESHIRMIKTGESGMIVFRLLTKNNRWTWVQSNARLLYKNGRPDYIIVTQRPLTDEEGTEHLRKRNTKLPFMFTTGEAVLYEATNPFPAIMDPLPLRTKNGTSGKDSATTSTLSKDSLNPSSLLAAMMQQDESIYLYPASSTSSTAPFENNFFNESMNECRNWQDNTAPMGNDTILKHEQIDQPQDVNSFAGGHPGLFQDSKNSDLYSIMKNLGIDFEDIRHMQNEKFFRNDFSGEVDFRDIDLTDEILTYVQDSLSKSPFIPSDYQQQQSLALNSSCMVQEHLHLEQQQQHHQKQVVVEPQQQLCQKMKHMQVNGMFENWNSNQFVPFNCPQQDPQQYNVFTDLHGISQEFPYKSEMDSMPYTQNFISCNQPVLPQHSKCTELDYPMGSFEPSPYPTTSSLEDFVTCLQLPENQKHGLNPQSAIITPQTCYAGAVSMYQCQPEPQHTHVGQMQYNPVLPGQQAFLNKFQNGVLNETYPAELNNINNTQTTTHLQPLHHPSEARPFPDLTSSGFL
Method in brief: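 U87 glioblastoma cells with endogenous AHR, stably carrying a DRE-driven firefly luciferase reporter and a constitutive renilla reporter. Cells prestimulated with the AHR agonist kynurenic acid before compound addition; data normalized to positive and negative controls.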

[2] = target: T1, AHR; assay: In vitro assay 2: agonism in human cell line (transactivation assay, U87 cells, DRE firefly luciferase reporter); assay type: cell-based; set-up: host or cells: U87 glioblastoma cells, stably transfected with DRE firefly luciferase and renilla reporter constructs; conditions: no kynurenic acid, 20 hours, read-out: Assay 2: AHR-luc Hum Agonism IC50
Method in brief: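 U87 glioblastoma cells with endogenous AHR, stably carrying DRE-driven firefly luciferase and constitutive renilla reporters. 300 uM kynurenic acid served as positive activation control; data normalized to positive and negative controls.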

SMILES	IC50 [1] [nM]	IC50 [2] [µM]
O=C(N[C@H]1CCCC(F)(F)[C@@H]1O)c1cc(-c2ccc(Cl)cc2)nn(-c2cccnc2)c1=O (racemic) [Example 143, 6-(4-Chlorophenyl)-N-[(trans)-3,3-difluoro-2-hydroxycyclohexyl]-3-oxo-2-(pyridin-3-yl)-2,3-dihydropyridazine-4-carboxamide]	9.61	> 20
CC(C)(O)CNC(=O)c1cc(-c2ccc(Cl)cc2)nn(-c2cncnc2)c1=O [Example 277, 6-(4-Chlorophenyl)-N-(2-hydroxy-2-methylpropyl)-3-oxo-2-(pyrimidin-5-yl)-2,3-dihydropyridazine-4-carboxamide]	139	> 20
O=C(N[C@@H]1CCC[C@H]1O)c1cc(-c2ccc(Cl)cc2)nn(-c2cccnc2)c1=O (relative stereo) [Example 148, 6-(4-Chlorophenyl)-N-[(trans)-2-hydroxycyclopentyl]-3-oxo-2-(pyridin-3-yl)-2,3-dihydropyridazine-4-carboxamide]	15.3	> 20
C[C@@H](CO)NC(=O)c1cc(-c2ccc(Cl)cc2)nn(-c2cnn(C3CCC3)c2)c1=O [Example 42, 6-(4-Chlorophenyl)-2-(1-cyclobutyl-1H-pyrazol-4-yl)-N-[(2S)-1-hydroxypropan-2-yl]-3-oxo-2,3-dihydropyridazine-4-carboxamide]	1570	> 20
O=C(NCC1(O)CCC1)c1cc(-c2ccc(C(F)(F)F)cc2)nn(-c2cccnc2)c1=O [Example 189, N-[(1-Hydroxycyclobutyl)methyl]-3-oxo-2-(pyridin-3-yl)-6-[4-(trifluoromethyl)phenyl]-2,3-dihydropyridazine-4-carboxamide]	3.03	> 20
Cn1cc(-n2nc(-c3ccc(Cl)cc3)cc(C(=O)NC(CO)CO)c2=O)cn1 [Example 31, 6-(4-Chlorophenyl)-N-(1,3-dihydroxypropan-2-yl)-2-(1-methyl-1H-pyrazol-4-yl)-3-oxo-2,3-dihydropyridazine-4-carboxamide]	244	> 20
C[C@@H](CO)NC(=O)c1cc(-c2ccc(N(C)C)cc2)nn(-c2cccnc2)c1=O [Example 191, 6-[4-(Dimethylamino)phenyl]-N-[(2S)-1-hydroxypropan-2-yl]-3-oxo-2-(pyridin-3-yl)-2,3-dihydropyridazine-4-carboxamide]	3.35	> 20
CC(NC(=O)c1cc(-c2ccc(Cl)cc2)nn(-c2cccnc2)c1=O)C(O)C(F)(F)F (single isomer, unassigned) [Example 299, 6-(4-Chlorophenyl)-3-oxo-2-(pyridin-3-yl)-N-(4,4,4-trifluoro-3-hydroxybutan-2-yl)-2,3-dihydropyridazine-4-carboxamide]	13.3	> 20
O=C(N[C@@H]1CC[C@@H]1O)c1cc(-c2ccc(Cl)cc2)nn(-c2cccnc2)c1=O (single isomer, unassigned) [Example 249, (+)-6-(4-Chlorophenyl)-N-cis-2-hydroxycyclo-butyl-3-oxo-2-(pyridin-3-yl)-2,3-dihydropyridazine-4-carboxamide]	15.3	> 20
CC(NC(=O)c1cc(-c2ccc(Cl)cc2)nn(-c2cccnc2)c1=O)C(O)C(F)(F)F (single isomer, unassigned) [Example 297, 6-(4-Chlorophenyl)-3-oxo-2-(pyridin-3-yl)-N-(4,4,4-trifluoro-3-hydroxybutan-2-yl)-2,3-dihydropyridazine-4-carboxamide]	1.49	> 20
O=C(N[C@@H]1COC[C@@H]1O)c1cc(-c2ccc(C(F)F)cc2)nn(-c2cccnc2)c1=O (relative stereo) [Example 323, 6-[4-(Difluoromethyl)phenyl]-N-[(cis)-4-hydroxy-tetrahydrofuran-3-yl]-3-oxo-2-(pyridin-3-yl)-2,3-dihydropyridazine-4-carboxamide]	60.4	> 20
C[C@@H](CO)NC(=O)c1cc(-c2ccc(OC(F)F)cc2)nn(-c2cccnc2)c1=O [Example 332, 6-[4-(Difluoromethoxy)phenyl]-N-[(2S)-1-hydroxypropan-2-yl]-3-oxo-2-(pyridin-3-yl)-2,3-dihydropyridazine-4-carboxamide]	94.5	> 20
C[C@@H](CO)NC(=O)c1cc(-c2ccc(Cl)cc2)nn(-c2cnoc2)c1=O [Example 253, 6-(4-Chlorophenyl)-N-[(2S)-1-hydroxypropan-2-yl]-2-(1,2-oxazol-4-yl)-3-oxo-2,3-dihydropyridazine-4-carboxamide]	19.4	> 20

More lines, in order of falling IC50 [1], values ahead:

IC50 [1] [nM]	IC50 [2] [µM]	SMILES
209	> 20	O=C(N[C@H]1CCC[C@@H]1O)c1cc(-c2ccc(C(F)F)nc2)nn(-c2cccnc2)c1=O [Example 165, 6-[6-(Difluoromethyl)pyridin-3-yl]-N-[(1S,2S)-2-hydroxycyclopentyl]-3-oxo-2-(pyridin-3-yl)-2,3-dihydropyridazine-4-carboxamide]
129	> 20	O=C(NC[C@H](O)CO)c1cc(-c2ccc(Cl)cc2)nn(-c2cncc(F)c2)c1=O [Example 99, 6-(4-Chlorophenyl)-N-[(2S)-2,3-dihydroxypropyl]-2-(5-fluoropyridin-3-yl)-3-oxo-2,3-dihydropyridazine-4-carboxamide]
115	> 20	O=C(NC(CO)CO)c1cc(-c2ccc(C(F)(F)F)cc2)nn(-c2cccnc2)c1=O [Example 116, N-(1,3-Dihydroxypropan-2-yl)-3-oxo-2-(pyridin-3-yl)-6-[4-(trifluoromethyl)phenyl]-2,3-dihydropyridazine-4-carboxamide]
81.6	> 20	Cn1cc(-n2nc(-c3ccc(OC(F)(F)F)cc3)cc(C(=O)N[C@@H]3COC[C@H]3O)c2=O)cn1 (single isomer, unassigned; enantiomer 1) [Example 64, N-[(trans)-4-Hydroxytetrahydrofuran-3-yl]-2-(1-methyl-1H-pyrazol-4-yl)-3-oxo-6-[4-(trifluoromethoxy)phenyl]-2,3-dihydropyridazine-4-carboxamide, Enantiomer 1]
65.6	> 20	C[C@@H](CO)NC(=O)c1cc(-c2ccc(Cl)cc2)nn(-c2cn[nH]c2)c1=O [Example 190, (+)-6-(4-Chlorophenyl)-N-[(2S)-1-hydroxypropan-2-yl]-3-oxo-2-(1H-pyrazol-4-yl)-2,3-dihydropyridazine-4-carboxamide]
36.8	> 20	O=C(N[C@H]1COC[C@@H]1O)c1cc(-c2ccc(Cl)cc2)nn(-c2cncc(F)c2)c1=O (relative stereo) [Example 154, 6-(4-Chlorophenyl)-2-(5-fluoropyridin-3-yl)-N-[(trans)-4-hydroxytetrahydrofuran-3-yl]-3-oxo-2,3-dihydropyridazine-4-carboxamide]
31.4	> 20	O=C(N[C@H]1CCCC(F)(F)[C@@H]1O)c1cc(-c2ccc(Cl)cc2)nn(-c2cccnc2)c1=O (single isomer, unassigned; enantiomer 1) [Example 144, 6-(4-Chlorophenyl)-N-[(trans)-3,3-difluoro-2-hydroxycyclohexyl]-3-oxo-2-(pyridin-3-yl)-2,3-dihydropyridazine-4-carboxamide, Enantiomer 1]
4.61	> 20	CC(C)[C@@H](CO)NC(=O)c1cc(-c2ccc(Cl)cc2)nn(-c2cncc(F)c2)c1=O [Example 83, 6-(4-Chlorophenyl)-2-(5-fluoropyridin-3-yl)-N-[(2S)-1-hydroxy-3-methylbutan-2-yl]-3-oxo-2,3-dihydropyridazine-4-carboxamide]
4.27	> 20	CC(C)(O)CNC(=O)c1cc(-c2ccc(Cl)cc2)nn(-c2cnsc2)c1=O [Example 222, 6-(4-Chlorophenyl)-N-(2-hydroxy-2-methylpropyl)-3-oxo-2-(1,2-thiazol-4-yl)-2,3-dihydropyridazine-4-carboxamide]
4.23	> 20	CC(C)(O)C(NC(=O)c1cc(-c2ccc(OC(F)(F)F)cc2)nn(-c2cccnc2)c1=O)C(F)(F)F (single isomer, unassigned; enantiomer 2) [Example 137, 3-Oxo-2-(pyridin-3-yl)-N-[1,1,1-trifluoro-3-hydroxy-3-methylbutan-2-yl]-6-[4-(trifluoromethoxy)phenyl]-2,3-dihydropyridazine-4-carboxamide, Enantiomer 2]
